Test results taken from patent US9585875B2, “TRPM8 antagonists” (Dompé S.P.A., priority 2011, dated 2017).

Experiments:
[1] = molecular target: CYP 2C9 (Homo sapiens, UniProt P11712); assay: CYP inhibition; type: in vitro ADME
[2] = molecular target: T1, human Serotoninergic 5-HT1A Receptor (Homo sapiens, UniProt P08908); assay: Radioligand binding assay; details: read-out: percentage of control binding value (% B)
T1 construct: expressed in transfected cells; host or cells: HEK293 or CHO
Description: (§1) The objective of this study was to evaluate the in vitro effects of compounds 10 and 45 on cloned human GPCRs (G-protein coupled receptors) expressed in HEK293 or CHO cells using radioligand binding assays (compound concentration=10 μM).
(§2) Three replicates were performed for each experiment.
(§3) For each assay a concentration-response curve of the appropriate reference compound was performed in each experiment. The sample radioactivity content was measured after the addition of the scintillation cocktail Microscint 20 (PerkinElmer), by a microplate scintillation Beta-counter TopCount NXT (PerkinElmer). The atomic disintegrations per minutes evaluated with the beta counter were about 15 times higher than those found using the gamma counter. Data are expressed as percentage of control binding value (% B) and test compound inhibition was considered significant when % B was <75% at 10 μM.

[3] = molecular target: T2, human Bradykinin B1 Receptor (Homo sapiens, UniProt P46663); assay: Radioligand binding assay; details: read-out: percentage of control binding value (% B)
T2 construct: expressed in transfected cells; host or cells: HEK293 or CHO
Description: as §1, §2, §3

[4] = molecular target: TRPM8 (Homo sapiens, UniProt Q7Z2W7); assay: HTS cell-based Ca2+ mobilization assay (FLIPR TETRA) in HEK293/hTRPM8 cells, agonist Cooling Agent 10; parameters: expressed in transfected cells; details: HEK293/hTRPM8, Cooling Agent 10 at EC80
From the text: A functional cell-based assay for the identification of TRPM8 receptor antagonists, optimised to allow high throughput screening at FLIPR^TETRA, was developed in HEK293 cells by stable pure clone selection and functional characterization with a fluorescent calcium sensitive dye.
TRPM8 was cloned into the multiple cloning site of pcDNA3 mammalian expression vector; the obtained construct pcDNA3/hTRPM8 was fully sequence verified and used for the transfection of HEK293 cell line. HEK293 cells stably transfected with TRPM8 gene were maintained in Minimum essential medium. The cells were transfected with the pcDNA3/hTRPM8 vector by electroporation and then selected with medium containing 0.8 mg/ml G418 for 10-15 days.
The following commercial compounds were used as ligands:
Activator: Cooling Agent 10 (Takasago CAS N. 87061-04-9)
Blocker: Capsazepine (SIGMA cat #D_5879)
The experimental activities were performed using FLIPR^TETRA instruments.
HEK293 cells stably transfected with TRPM8 gene were maintained in Minimum essential medium.
The TRPM8 cell line was analysed for the response to a library of compounds using a Ca^2+ mobilization-dependent fluorescence signal in 384 wells microtiter plate format. The analysis was performed using the FLIPR^TETRA (MDC) with the ICCD Camera.
The execution of the assay involved the use of three microtiter plates:
1. Assay plate, containing cells loaded with dye and prepared as follows:
Cells were seeded at 15000 c/well in Poly-D-Lysine coated 384 wells Microtiter Plates in complete medium (25 μl/well).
24 h after seeding, the cell plates were washed with Tyrode assay buffer by the Microplate Washer and 10 μL of Tyrode assay buffer was left in each well.
Cells were then loaded with 10 μL/well of the Fluo-4 NW dye solution by CyBi®-Well pipettor. Each bottle of Fluo4-NW dye (Molecular Probes cat. #F36206, component A) was re-suspended in 8 mL of Tyrode assay buffer and supplemented with 100 μL of water-soluble probenecid (MolecularProbes cat.#F36206, component B).
Dye loaded cell plates were incubated for 1 h at room temperature.
2. Compound Dilution Plate (FIG. 1), containing diluted test compounds, formulated as follows: […]
Column 1: wells containing Assay Buffer plus DMSO 0.5% final
Columns 3-22: wells containing Assay Buffer plus 0.5% DMSO final. To these wells the compounds to be tested were added at 3× concentration.
Column 23: alternating wells of Max Signal Control in second injection (Assay buffer) and Min Signal Control in second injection (Antagonist Capsazepine IC100, 50 μM) in Assay buffer plus 0.5% DMSO final;
Column 24: wells containing Capsazepine (Antagonist) at 8 concentrations in duplicate at final concentrations of 50 μM, 25 μM, 6.25 μM, 3.15 μM, 1.56 μM, 780 nM, […] in Assay buffer plus 0.5% DMSO final.
3. Activator Plate (FIG. 2), containing agonist Cooling Agent 10 at EC80, formulated as follows:
Column 1: Cooling Agent 10 (Agonist) at 8 concentrations dose response in duplicate at final concentrations of 100 μM, 31.6 μM, 10 μM, 3.16 μM, 1 μM, 316 nM, 100 nM, 31.6 nM in Assay buffer;
Columns 2-24: Cooling Agent 10 (Agonist) at EC80 (3 fold concentrated, 20 μM final) in Assay buffer.
The test was carried out according to a procedure comprising the following steps:
1. The samples contained in the wells of the Compound Plate were added to the corresponding wells of the Assay Plate by the FLIPR^TETRA, thus resulting in the addition in Columns 3-22 of the test compounds at 3× concentration to the cells of the assay plates. No mixing was performed in the assay wells and the signal of the emitted fluorescence was recorded for 300 seconds. 2. The samples contained in the wells of the Activator Plate were added to the corresponding wells of the Assay Plate by the FLIPR^TETRA, thus resulting in the addition in Columns 3-22 of the Assay Plate of the agonist compound in addition to the test compounds. The signal of the emitted fluorescence was recorded for 180 seconds.

[5] = test system: Male Sprague-Dawley rats; assay: Chronic constriction injury model, mechanical allodynia (von Frey); type: in vivo, rat; details: 10 mg/kg i.v., 2 hours post-dosing, CCI rats
Description: Male Sprague-Dawley rats were used. Under pentobarbital anesthesia, the sciatic nerve was exposed at mid-thigh level (Bennett G J et al Pain. 33: 87-107, 1988). Four ligatures were loosely tied around the sciatic nerve of the left hind limb to induce enhancement of pain caused by nerve injury. Mechanical allodynia was evaluated by using a set of 8 manual von Frey monofilaments (0.4, 0.6, 1, 2, 4, 6, 8 and 15 g) 18 days after surgery and basal response was recorded.
On day 19 body weight was recorded and compounds 10 and 45 were administered by i.v. route at the dose of 10 mg/kg. 60, 120 and 180 min post dose, mechanical allodynia was tested by evaluation of the Paw Withdrawl Threshold (PWT) and % Maximum Possible Effect (MPE) was calculated according to the following formula: […]
The mechanical allodynia was tested 1 day before treatment and at 2 hours post-dosing. One-way ANOVA followed by Dunnett's test was applied for comparison between vehicle control and test compound treated groups. *p<0.05 is considered significant.

[6] = molecular target: hERG channel (Homo sapiens, UniProt Q12809); assay: hERG binding
[7] = Plasma Protein Binding; type: in vitro ADME; details: human
[8] = molecular target: CYP 3A4 (Homo sapiens, UniProt P08684); assay: CYP inhibition; type: in vitro ADME
[9] = Log D; type: physicochemical
[10] = Plasma Protein Binding; type: in vitro ADME; details: rat

T1 sequence (P08908 whole entry): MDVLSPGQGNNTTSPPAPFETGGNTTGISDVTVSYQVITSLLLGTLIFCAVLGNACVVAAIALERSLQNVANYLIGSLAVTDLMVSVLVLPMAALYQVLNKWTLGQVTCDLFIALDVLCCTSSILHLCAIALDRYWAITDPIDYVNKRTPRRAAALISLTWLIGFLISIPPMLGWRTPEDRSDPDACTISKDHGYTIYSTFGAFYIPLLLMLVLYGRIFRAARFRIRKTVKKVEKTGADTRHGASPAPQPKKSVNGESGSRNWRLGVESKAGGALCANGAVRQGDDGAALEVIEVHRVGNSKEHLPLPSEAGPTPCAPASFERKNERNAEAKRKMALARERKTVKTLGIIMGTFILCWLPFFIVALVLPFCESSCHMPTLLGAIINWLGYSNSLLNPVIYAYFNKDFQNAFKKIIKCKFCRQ
CYP 3A4, sequence (P08684 whole entry): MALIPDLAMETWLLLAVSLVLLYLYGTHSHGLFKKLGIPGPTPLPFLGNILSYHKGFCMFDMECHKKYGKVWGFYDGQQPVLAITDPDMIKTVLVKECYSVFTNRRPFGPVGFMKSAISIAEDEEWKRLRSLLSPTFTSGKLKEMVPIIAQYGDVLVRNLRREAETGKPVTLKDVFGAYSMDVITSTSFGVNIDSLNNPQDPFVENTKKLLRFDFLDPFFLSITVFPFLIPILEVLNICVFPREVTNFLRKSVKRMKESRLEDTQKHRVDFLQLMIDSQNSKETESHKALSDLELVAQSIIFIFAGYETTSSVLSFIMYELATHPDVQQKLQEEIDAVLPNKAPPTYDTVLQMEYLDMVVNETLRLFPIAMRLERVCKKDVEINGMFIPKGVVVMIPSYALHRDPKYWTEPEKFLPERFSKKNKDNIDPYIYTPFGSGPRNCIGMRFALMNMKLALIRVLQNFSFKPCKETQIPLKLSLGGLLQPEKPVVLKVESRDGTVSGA
CYP 2C9, sequence (P11712 whole entry): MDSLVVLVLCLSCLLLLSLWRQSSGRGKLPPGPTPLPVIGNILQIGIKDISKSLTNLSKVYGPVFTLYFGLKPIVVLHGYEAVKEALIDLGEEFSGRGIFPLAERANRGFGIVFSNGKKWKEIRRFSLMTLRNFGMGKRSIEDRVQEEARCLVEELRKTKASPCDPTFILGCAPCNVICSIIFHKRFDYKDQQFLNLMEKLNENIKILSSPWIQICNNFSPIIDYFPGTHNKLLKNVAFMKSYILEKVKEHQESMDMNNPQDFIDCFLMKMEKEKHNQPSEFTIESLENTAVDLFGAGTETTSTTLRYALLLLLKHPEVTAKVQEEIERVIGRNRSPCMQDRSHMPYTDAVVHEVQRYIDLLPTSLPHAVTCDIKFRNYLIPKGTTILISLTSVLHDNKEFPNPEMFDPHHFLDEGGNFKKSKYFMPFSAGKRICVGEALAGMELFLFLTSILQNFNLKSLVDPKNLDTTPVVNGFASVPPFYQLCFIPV
T2 sequence (P46663 whole entry): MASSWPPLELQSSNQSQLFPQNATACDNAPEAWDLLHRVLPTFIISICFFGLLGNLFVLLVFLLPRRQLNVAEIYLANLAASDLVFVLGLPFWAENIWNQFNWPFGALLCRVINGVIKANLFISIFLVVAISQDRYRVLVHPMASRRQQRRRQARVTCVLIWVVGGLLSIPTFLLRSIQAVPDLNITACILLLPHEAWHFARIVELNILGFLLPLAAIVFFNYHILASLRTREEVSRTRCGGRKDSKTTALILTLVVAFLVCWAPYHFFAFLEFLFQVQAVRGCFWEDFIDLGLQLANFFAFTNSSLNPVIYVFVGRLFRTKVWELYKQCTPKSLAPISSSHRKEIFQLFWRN
hERG channel, sequence (Q12809 whole entry): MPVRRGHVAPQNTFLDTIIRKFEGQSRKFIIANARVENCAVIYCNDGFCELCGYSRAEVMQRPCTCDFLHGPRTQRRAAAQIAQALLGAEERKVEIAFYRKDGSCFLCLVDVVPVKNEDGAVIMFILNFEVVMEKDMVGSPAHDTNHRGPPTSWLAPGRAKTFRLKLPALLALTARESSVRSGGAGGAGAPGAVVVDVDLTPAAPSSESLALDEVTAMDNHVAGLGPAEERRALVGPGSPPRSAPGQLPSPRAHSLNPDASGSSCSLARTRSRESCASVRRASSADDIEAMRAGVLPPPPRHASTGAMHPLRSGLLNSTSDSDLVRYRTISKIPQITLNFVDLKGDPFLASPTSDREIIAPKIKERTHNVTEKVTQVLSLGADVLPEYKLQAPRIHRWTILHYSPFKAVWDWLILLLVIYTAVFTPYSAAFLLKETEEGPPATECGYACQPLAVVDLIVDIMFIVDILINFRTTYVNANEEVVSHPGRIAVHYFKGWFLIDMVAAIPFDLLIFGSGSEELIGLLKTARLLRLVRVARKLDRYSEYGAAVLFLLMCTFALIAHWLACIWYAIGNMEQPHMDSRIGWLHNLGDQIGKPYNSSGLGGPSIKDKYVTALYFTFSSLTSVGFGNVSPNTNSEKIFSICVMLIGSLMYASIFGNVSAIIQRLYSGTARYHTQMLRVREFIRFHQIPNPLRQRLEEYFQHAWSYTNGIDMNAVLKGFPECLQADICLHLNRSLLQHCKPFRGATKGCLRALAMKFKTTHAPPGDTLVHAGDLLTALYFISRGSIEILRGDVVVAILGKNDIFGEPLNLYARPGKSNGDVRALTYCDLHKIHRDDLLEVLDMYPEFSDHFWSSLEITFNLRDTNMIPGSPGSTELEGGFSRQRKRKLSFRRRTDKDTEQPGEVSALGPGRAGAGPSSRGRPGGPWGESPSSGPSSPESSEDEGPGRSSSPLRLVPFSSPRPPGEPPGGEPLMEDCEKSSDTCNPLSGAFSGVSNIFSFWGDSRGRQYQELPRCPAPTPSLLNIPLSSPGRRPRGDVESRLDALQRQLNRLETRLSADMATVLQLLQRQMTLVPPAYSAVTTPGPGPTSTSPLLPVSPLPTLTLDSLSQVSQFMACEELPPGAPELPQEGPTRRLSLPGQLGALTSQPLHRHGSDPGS
TRPM8, sequence (Q7Z2W7 whole entry): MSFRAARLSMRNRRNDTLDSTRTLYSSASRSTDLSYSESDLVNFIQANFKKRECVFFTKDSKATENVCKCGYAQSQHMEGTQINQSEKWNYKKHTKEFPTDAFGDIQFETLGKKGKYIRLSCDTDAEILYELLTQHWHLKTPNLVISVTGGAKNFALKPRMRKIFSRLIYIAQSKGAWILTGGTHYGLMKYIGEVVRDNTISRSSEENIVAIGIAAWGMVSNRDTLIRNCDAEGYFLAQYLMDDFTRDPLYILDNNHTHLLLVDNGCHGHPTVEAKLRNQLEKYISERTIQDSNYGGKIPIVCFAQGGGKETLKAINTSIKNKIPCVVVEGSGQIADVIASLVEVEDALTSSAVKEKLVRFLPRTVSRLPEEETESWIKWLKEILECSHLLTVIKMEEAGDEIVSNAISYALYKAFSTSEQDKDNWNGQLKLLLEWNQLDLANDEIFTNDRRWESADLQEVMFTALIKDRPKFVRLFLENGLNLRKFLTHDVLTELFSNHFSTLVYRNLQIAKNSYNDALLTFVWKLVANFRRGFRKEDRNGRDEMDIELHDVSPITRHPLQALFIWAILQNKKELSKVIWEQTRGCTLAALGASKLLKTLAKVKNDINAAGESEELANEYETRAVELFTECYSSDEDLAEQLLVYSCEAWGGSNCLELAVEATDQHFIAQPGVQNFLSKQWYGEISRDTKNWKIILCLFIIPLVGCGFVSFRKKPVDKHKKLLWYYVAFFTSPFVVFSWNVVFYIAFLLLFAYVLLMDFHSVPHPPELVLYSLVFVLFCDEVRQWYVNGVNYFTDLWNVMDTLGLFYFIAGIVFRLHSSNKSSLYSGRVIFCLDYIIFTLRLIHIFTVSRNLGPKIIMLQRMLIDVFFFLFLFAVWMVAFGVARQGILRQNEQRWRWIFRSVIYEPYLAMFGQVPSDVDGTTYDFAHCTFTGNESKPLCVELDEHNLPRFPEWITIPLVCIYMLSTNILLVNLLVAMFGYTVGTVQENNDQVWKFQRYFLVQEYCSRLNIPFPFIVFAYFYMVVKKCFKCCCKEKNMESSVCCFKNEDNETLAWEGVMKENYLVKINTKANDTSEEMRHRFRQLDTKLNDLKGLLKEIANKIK

Row | Compound | CYP (% inhibition) @10 μM, 2C9 [1] [%] | remaining activity at 10 µM [2] [%] | remaining activity at 10 µM [3] [%] | IC50 [4] [nM] | anti-allodynic activity, mechanical allodynia (PWT, % MPE) [5] | hERG binding @10 μM [6] | fraction unbound at 10 μM [7] | CYP (% inhibition) @10 μM, 3A4 [8] [%] | log D values [9] | logD [9] | fraction unbound at 10 μM [10]
1 | CCOC(=O)c1sc(-c2cccc(F)c2)nc1O [Compound 10, ethyl 2-(3-fluorophenyl)-4-hydroxy-1,3-thiazole-5-carboxylate] | <5 | 100 | 91 | 1000 | significant anti-allodynic activity | No effect | 0.03 | <5 | low | 1.59 | 0.02
2 | O=C(O)c1sc(-c2ccc(Cl)cc2)nc1OCc1ccc(Cl)cc1 [Compound 45, 4-[(4-chlorobenzyl)oxy]-2-(4-chlorophenyl)-1,3-thiazole-5-carboxylic acid] | <5 | 100 | 99.6 | 0.2 | significant anti-allodynic activity | No effect | 0.01 | <5 | – | 2.7 | 0.01
